Results published in the supplement of paper PMC13386468.

Key:
Test in all cases: IC50 for competition of protein binding to Kinobeads
Settings in all cases: assay detail: Kinobeads competition in P. falciparum blood-stage lysate
UniProt Q8IBT7 = biological target: UniProt Q8IBT7
UniProt O77396 = biological target: UniProt O77396
UniProt Q8I4V7 = biological target: UniProt Q8I4V7
UniProt Q8I323 = biological target: UniProt Q8I323
UniProt Q8ILL3 = biological target: UniProt Q8ILL3
UniProt O96210 = biological target: UniProt O96210
UniProt Q8ILZ3 = biological target: UniProt Q8ILZ3
UniProt Q7KQL3 = biological target: UniProt Q7KQL3
UniProt Q8IJA4 = biological target: UniProt Q8IJA4
A0A143ZZT8 = biological target: A0A143ZZT8
UniProt Q7KQL5 = biological target: UniProt Q7KQL5
UniProt Q8IIW2 = biological target: UniProt Q8IIW2
UniProt Q8IIE7 = biological target: UniProt Q8IIE7
UniProt C0H529 = biological target: UniProt C0H529
UniProt Q8IDJ4 = biological target: UniProt Q8IDJ4
UniProt C6KSP9 = biological target: UniProt C6KSP9
UniProt Q8IAK9 = biological target: UniProt Q8IAK9
UniProt Q8I353 = biological target: UniProt Q8I353
UniProt Q8I574 = biological target: UniProt Q8I574
UniProt Q8IJA9 = biological target: UniProt Q8IJA9
UniProt Q8I0V3 = biological target: UniProt Q8I0V3
UniProt Q8I5H9 = biological target: UniProt Q8I5H9
UniProt Q8IID5 = biological target: UniProt Q8IID5
UniProt Q8ILJ7 = biological target: UniProt Q8ILJ7
UniProt Q8I3Y8 = biological target: UniProt Q8I3Y8
UniProt Q8I5B6 = biological target: UniProt Q8I5B6
UniProt Q8IE84 = biological target: UniProt Q8IE84
UniProt Q8IB66 = biological target: UniProt Q8IB66
UniProt Q8IKH3 = biological target: UniProt Q8IKH3
UniProt O77312 = biological target: UniProt O77312
UniProt Q8IJ37 = biological target: UniProt Q8IJ37
UniProt Q8IIJ9 = biological target: UniProt Q8IIJ9
UniProt Q8I0P6 = biological target: UniProt Q8I0P6
UniProt Q8I0U7 = biological target: UniProt Q8I0U7
UniProt C0H5J5 = biological target: UniProt C0H5J5
UniProt Q8I272 = biological target: UniProt Q8I272
UniProt Q8IHT4 = biological target: UniProt Q8IHT4
UniProt O77385 = biological target: UniProt O77385
UniProt P62344 = biological target: UniProt P62344
UniProt Q8I5F9 = biological target: UniProt Q8I5F9
UniProt Q8IDV5 = biological target: UniProt Q8IDV5
UniProt Q7KQK3 = biological target: UniProt Q7KQK3
UniProt Q8I5V9 = biological target: UniProt Q8I5V9
UniProt Q8I2I2 = biological target: UniProt Q8I2I2
UniProt C6KSV4 = biological target: UniProt C6KSV4
UniProt Q8I1T4 = biological target: UniProt Q8I1T4
UniProt Q8IDJ8 = biological target: UniProt Q8IDJ8
UniProt Q8IKK7 = biological target: UniProt Q8IKK7
UniProt Q7K6A0 = biological target: UniProt Q7K6A0
UniProt Q8I3Q6 = biological target: UniProt Q8I3Q6
UniProt Q8IK91 = biological target: UniProt Q8IK91
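Further: native unpurified kinases from lysate captured on beads bearing immobilized kinase inhibitors, with bead-bound kinases quantified by mass spectrometry across compound doses.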

UniProt Q7KQL5, sequence (Q7KQL5 whole entry): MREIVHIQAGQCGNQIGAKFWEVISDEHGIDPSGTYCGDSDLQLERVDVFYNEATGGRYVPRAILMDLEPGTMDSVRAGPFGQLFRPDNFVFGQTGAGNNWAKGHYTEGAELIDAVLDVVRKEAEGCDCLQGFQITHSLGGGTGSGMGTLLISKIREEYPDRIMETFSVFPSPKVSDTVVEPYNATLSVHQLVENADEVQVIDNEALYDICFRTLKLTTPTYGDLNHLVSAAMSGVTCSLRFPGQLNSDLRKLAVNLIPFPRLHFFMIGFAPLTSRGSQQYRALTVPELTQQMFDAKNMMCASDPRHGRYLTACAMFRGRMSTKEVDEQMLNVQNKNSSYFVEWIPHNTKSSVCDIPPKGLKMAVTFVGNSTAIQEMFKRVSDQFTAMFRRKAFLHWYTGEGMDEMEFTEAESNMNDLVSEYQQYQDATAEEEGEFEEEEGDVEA
UniProt P62344, sequence (P62344 whole entry, looked up): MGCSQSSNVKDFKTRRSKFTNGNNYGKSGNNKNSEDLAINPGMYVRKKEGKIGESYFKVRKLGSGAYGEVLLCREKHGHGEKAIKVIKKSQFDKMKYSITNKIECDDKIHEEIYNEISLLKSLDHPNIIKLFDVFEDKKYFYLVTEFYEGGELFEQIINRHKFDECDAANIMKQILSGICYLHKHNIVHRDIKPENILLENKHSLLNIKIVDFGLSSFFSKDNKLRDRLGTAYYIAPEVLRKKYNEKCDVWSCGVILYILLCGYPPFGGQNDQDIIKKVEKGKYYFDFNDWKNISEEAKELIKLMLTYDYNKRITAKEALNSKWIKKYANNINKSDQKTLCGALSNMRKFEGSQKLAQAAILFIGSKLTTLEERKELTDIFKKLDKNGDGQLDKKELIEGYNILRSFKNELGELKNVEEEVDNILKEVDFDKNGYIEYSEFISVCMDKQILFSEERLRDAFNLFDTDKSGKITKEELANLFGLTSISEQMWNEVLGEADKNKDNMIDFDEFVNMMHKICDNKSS
UniProt Q8IJA9, sequence (Q8IJA9 whole entry): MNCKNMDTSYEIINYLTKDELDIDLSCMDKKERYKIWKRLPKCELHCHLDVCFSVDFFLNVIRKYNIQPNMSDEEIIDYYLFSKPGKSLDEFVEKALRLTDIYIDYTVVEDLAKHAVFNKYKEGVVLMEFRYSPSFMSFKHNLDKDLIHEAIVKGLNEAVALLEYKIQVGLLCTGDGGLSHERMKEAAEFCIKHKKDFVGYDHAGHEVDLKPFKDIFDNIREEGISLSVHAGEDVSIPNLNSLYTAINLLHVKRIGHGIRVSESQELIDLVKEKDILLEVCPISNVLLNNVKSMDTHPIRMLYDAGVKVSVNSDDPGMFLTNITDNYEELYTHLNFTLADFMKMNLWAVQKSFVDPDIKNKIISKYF
UniProt Q7KQL3, sequence (Q7KQL3 whole entry): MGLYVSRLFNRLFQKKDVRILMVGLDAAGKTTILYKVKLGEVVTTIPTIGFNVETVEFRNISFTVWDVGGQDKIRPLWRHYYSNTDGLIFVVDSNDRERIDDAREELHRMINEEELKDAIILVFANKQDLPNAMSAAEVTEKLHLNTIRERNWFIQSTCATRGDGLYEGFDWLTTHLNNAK
UniProt Q8IIJ9, sequence (Q8IIJ9 whole entry): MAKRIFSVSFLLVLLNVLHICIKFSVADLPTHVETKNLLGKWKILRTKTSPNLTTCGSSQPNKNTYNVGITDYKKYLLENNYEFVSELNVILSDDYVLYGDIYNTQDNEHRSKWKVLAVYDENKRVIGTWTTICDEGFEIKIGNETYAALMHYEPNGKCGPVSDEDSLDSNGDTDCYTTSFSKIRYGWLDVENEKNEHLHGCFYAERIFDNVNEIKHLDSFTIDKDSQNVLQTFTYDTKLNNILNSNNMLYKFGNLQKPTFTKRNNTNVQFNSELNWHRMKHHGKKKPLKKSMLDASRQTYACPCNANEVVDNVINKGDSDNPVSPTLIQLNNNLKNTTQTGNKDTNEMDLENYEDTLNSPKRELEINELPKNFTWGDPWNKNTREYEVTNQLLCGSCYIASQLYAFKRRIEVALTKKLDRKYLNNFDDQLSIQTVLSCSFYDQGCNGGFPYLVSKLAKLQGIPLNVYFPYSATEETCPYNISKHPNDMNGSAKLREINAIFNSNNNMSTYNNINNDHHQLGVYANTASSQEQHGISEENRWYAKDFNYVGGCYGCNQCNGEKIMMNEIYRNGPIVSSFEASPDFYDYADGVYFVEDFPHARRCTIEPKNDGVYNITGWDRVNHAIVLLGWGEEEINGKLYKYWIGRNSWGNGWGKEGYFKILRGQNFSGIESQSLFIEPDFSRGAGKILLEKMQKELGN
UniProt Q8I3Y8, sequence (Q8I3Y8 whole entry): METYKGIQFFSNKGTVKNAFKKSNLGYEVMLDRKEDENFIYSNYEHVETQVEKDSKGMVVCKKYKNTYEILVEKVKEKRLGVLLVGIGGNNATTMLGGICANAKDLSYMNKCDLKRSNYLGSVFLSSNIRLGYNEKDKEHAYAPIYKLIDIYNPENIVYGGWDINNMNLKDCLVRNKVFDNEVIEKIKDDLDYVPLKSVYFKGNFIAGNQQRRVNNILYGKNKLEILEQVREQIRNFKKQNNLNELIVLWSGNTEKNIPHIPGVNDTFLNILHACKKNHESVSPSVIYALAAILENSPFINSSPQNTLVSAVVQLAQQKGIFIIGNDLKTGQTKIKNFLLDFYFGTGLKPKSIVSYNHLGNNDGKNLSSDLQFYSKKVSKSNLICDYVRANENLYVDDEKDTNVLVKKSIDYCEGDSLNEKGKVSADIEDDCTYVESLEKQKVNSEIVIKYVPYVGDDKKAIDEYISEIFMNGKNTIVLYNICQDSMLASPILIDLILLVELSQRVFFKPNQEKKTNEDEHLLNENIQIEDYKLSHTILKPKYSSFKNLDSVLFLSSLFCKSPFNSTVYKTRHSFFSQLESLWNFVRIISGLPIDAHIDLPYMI

Compound `O=c1[nH]c2ccc(Cl)cc2c(NC2CN3CCC2CC3)c1-c1nc2ccccc2[nH]1` (stereo unspecified) [CHIR-124] has an IC50 (UniProt Q8IBT7) of over 20 µM, an IC50 (UniProt O77396) of over 20 µM and an IC50 (UniProt Q8I4V7) of over 20 µM. The IC50 (UniProt Q8I323) was over 20 µM, the IC50 (UniProt Q8ILL3) was over 20 µM and the IC50 (UniProt O96210) was over 20 µM. It also gave an IC50 (UniProt Q8ILZ3) of over 20 µM, an IC50 (UniProt Q7KQL3) of over 20 µM and an IC50 (UniProt Q8IJA4) of over 20 µM. For the same compound, the IC50 (A0A143ZZT8) was over 20 µM, the IC50 (UniProt Q7KQL5) was over 20 µM and the IC50 (UniProt Q8IIW2) was over 20 µM. The IC50 (UniProt Q8IIE7) was 177 nM, the IC50 (UniProt C0H529) was over 20 µM and the IC50 (UniProt Q8IDJ4) was over 20 µM. It also gave an IC50 (UniProt C6KSP9) of over 20 µM, an IC50 (UniProt Q8IAK9) of over 20 µM and an IC50 (UniProt Q8I353) of over 20 µM. The IC50 (UniProt Q8I574) was over 20 µM, the IC50 (UniProt Q8IJA9) was over 20 µM and the IC50 (UniProt Q8I0V3) was over 20 µM. For the same compound, the IC50 (UniProt Q8I5H9) was 14 µM, the IC50 (UniProt Q8IID5) was over 20 µM and the IC50 (UniProt Q8ILJ7) was over 20 µM. It also gave an IC50 (UniProt Q8I3Y8) of over 20 µM, an IC50 (UniProt Q8I5B6) of over 20 µM and an IC50 (UniProt Q8IE84) of over 20 µM. The IC50 (UniProt Q8IB66) was over 20 µM, the IC50 (UniProt Q8IKH3) was over 20 µM and the IC50 (UniProt O77312) was over 20 µM. The IC50 (UniProt Q8IJ37) was over 20 µM, the IC50 (UniProt Q8IIJ9) was over 20 µM and the IC50 (UniProt Q8I0P6) was over 20 µM. For the same compound, the IC50 (UniProt Q8I0U7) was over 20 µM, the IC50 (UniProt C0H5J5) was over 20 µM and the IC50 (UniProt Q8I272) was over 20 µM. It also gave an IC50 (UniProt Q8IHT4) of over 20 µM, an IC50 (UniProt O77385) of over 20 µM and an IC50 (UniProt P62344) of under 82.3 nM. For the same compound, the IC50 (UniProt Q8I5F9) was over 20 µM, the IC50 (UniProt Q8IDV5) was over 20 µM and the IC50 (UniProt Q7KQK3) was over 20 µM. For the same compound, the IC50 (UniProt Q8I5V9) was over 20 µM, the IC50 (UniProt Q8I2I2) was over 20 µM and the IC50 (UniProt C6KSV4) was over 20 µM. It also gave an IC50 (UniProt Q8I1T4) of over 20 µM, an IC50 (UniProt Q8IDJ8) of over 20 µM and an IC50 (UniProt Q8IKK7) of over 20 µM. It also gave an IC50 (UniProt Q7K6A0) of 865 nM, an IC50 (UniProt Q8I3Q6) of over 20 µM and an IC50 (UniProt Q8IK91) of over 20 µM.
